Values of other authors as cited in patent US20070275008A1, “Synergistic Diabetic Phyto-Nutraceutical Composition” (priority 2006, published 2007).

What was measured:
[1] = system: bacterial resistance mechanism against the berberine antimicrobial; conditions: in vitro; in the presence of 5′-MHC
[2] = system: hepatic toxicity induced by paracetamol, prednisolone and bromobenzene; conditions: mice; pre-treatment during ten days

Q: Which “accumulation of berberine in the cells” value [1] does the source give for `COc1cc([C@H]2Oc3cc(-c4cc(=O)c5c(O)cc(O)cc5o4)cc(OC)c3O[C@@H]2CO)ccc1O` (racemic) [5′-MHC, 5′-methoxyhydnocarpin] here?
A: The value was “strong increase of accumulation of berberine in the cells”.

Q: Which “hepatic toxicity induced by paracetamol, prednisolone and bromobenzene” value [2] does the source give for `COc1cc(/C=C/C(=O)[O-])ccc1O.[Na+]` [sodium ferulate] here?
A: Its value is “improved the hepatic toxicity”.
